{
  "source": "paper PMC3326647",
  "about": "“Single Enantiomer of YK-4-279 Demonstrates Specificity in Targeting the Oncogene EWS-FLI1” (Oncotarget, 2012)",
  "key": {"EWS-FLI1 and RHA": {"system": "EWS-FLI1 and RHA", "assay": "ELISA of binding between EWS-FLI1 and RHA", "procedure": "EWS-FLI1 was used to coat the surface of a 96 well plate (MaxiSorb) at a concentration of 150ng/well in 100μL buffer containing 20mM Tris, 500mM sodium chloride, and 1M imidazole. Following overnight incubation, the plate was blocked with 4% BSA in PBS and washed with PBS + 0.1% Tween-20. Small molecules were added at concentrations of 1μM, 3μM, 10μM, and 30μM, followed by RHA (300ng/well) and allowed to incubate overnight. Following washing, incubation with RHA antibody (Everest) and anti-goat secondary, protein binding was detected using a TMB Peroxidase EIA Substrate Kit (Bio-Rad) per the manufacturer's instructions."}, "[1]": {"system": "Cyclin D1b/D1a mRNA level in A673i cells", "assay": "Quantitative RT-PCR of Cyclin D1b/D1a mRNA in A673i cells", "format": "cell-based", "settings": "1μM, 8 hours", "procedure": "A673i cells were treated with 1μM small molecule for 8 hours. Positive control cells were treated with tetracycline for 72 hours to knock down expression of EWS-FLI1. Total RNA was extracted using an RNeasy Micro Kit (Qiagen) and reverse transcribed using the Transcriptor First Strand cDNA Synthesis Kit (Roche) per the manufacturer's instructions. qPCR was performed using an Eppendorf Mastercycler Realplex with FastStart Universal SYBR Green Master with ROX (Roche) with primers for 18S, CyclinD1a, and CyclinD1b. Data were analyzed for expression relative to 18S using the comparative Ct method. Data from four separate experiments performed in duplicate were averaged."}, "TC71 cells": {"system": "TC71 cells", "assay": "Cellular proliferation (WST) assay, TC71", "format": "cell-based", "settings": "for IC50: TC-71, 72 h, TC71, ESFT (Type 1), read-out: IC50 at 3 days (+/− SEM)", "procedure": "(§1) TC32, TC71, RDES, MMH-ES-1, STA-ET 7.2, A4573, and PC3 cells were grown in RPMI with 10% FBS and 1% HEPES. SKES cells were grown in McCoy's 5A medium with 15% FBS. MCF7, MDA-MB-231, PANC1, and ASPC1 cells were grown in colorless DMEM with 10% FBS. Cells were grown at a plating density of 5,000 – 15,000 cells/well, depending on cell line, in a 96-well plate. Small molecule or vehicle alone (DMSO) were added to cells in appropriate growth media the day after plating. After three days, viable cells were quantified using WST (Roche) according to the manufacturer's protocol. IC50 values were calculated by sigmoidal dose-response curve fit using Prism Graphpad 4.0."}, "MMH-ES-1 cells": {"system": "MMH-ES-1 cells", "assay": "Cellular proliferation (WST) assay, MMH-ES-1", "format": "cell-based", "settings": "72 h; MMH-ES-1, ESFT (Type 2); read-out: IC50 at 3 days (+/− SEM)", "procedure": "as §1"}, "MDA-MB-231 cells [2]": {"system": "MDA-MB-231 cells", "assay": "Cellular proliferation (WST) assay, MDA-MB-231", "format": "cell-based", "settings": "Homo sapiens, 72 h; MDA-MB-231, breast; read-out: IC50 at 3 days (+/− SEM)", "procedure": "as §1"}, "PANC1 cells [3]": {"system": "PANC1 cells", "assay": "Cellular proliferation (WST) assay, PANC1", "format": "cell-based", "settings": "Homo sapiens, PANC-1, 72 h; PANC1, pancreatic; read-out: IC50 at 3 days (+/− SEM)", "procedure": "as §1"}, "ESFT cell lines": {"system": "ESFT cell lines", "assay": "Cellular proliferation (WST) assay, panel of seven ESFT cell lines", "format": "cell-based", "settings": "72 h", "procedure": "as §1"}, "[4]": {"system": "caspase-3 activity in ESFT cells (TC32, RDES, SKES, A4573, MMH-ES-1, STA-ET 7.2)", "assay": "Caspase-3 activity in ESFT cells", "format": "cell-based", "settings": "10μM, 18 hours", "procedure": "(§2) Cells were plated at 100,000 – 200,000 cells/well, depending on cell line, in a 12 well plate. Small molecule was added the following day. 18 hours later, lysates were collected using the manufacturer's protocol for the AC-DEVD-AMC substrate (BD Bioscience Pharmingen). Caspase-3 substrate was incubated for 2 hours with protein lysate and fluorescence from cleaved substrate was measured in a fluorimeter. Fluorescent signal was then normalized to protein lysate via BCA assay."}, "[5]": {"system": "caspase-3 activity in A4573 ESFT cells", "assay": "Caspase-3 activation dose titration in A4573 cells", "format": "cell-based", "settings": "between 0.3 and 1μM, 18 hours", "procedure": "as §2"}, "MDA-MB-231 cells [6]": {"system": "MDA-MB-231 cells", "settings": "MDA-MB-231 from a different source, previously reported; cited from earlier work"}, "PANC1 cells [7]": {"system": "PANC1 cells", "settings": "PANC1 from a different source, previously reported; cited from earlier work"}, "[8]": {"system": "non-transformed cell lines", "design": "method as in PMID 19584866", "settings": "racemic; cited from earlier work"}, "[9]": {"design": "method as in PMID 19584866", "settings": "xenograft mice, 75 mg per kg body weight; cited from earlier work"}, "[10]": {"assay": "Pharmacokinetic analysis in rats", "format": "in vivo", "settings": "both sexes, Sprague-Dawley, plasma, po; rat, gavage administration", "procedure": "(§3) All pharmacokinetic studies were performed using Sprague-Dawley rats. Nine rats per gender were assigned to nine dose groups, which received either a single IV injection of YK-4-279, (S)-YK-4-279, or (R)-YK-4-279 at a target dose of 25 mg/kg, or a single gavage administration of small molecule at a target dose level of 25 or 50 mg/kg. Plasma was obtained from the rats and samples were processed by liquid extraction followed by analysis using liquid chromatography with mass spectrometry (LC/MS). Average urine concentrations were measured at intervals from 0-4, 4-8, and 8-12 hours after dosing. 18 Fox Chase SCID Beige mice were injected with A4573 cells and received six doses of (S)-YK-4-279 at 75 mg/kg to determine concentration of small molecule in the tumors."}, "[11]": {"assay": "Evaluation of racemization in A4573 ESFT xenograft tumors", "format": "in vivo", "settings": "A4573 tumor-bearing SCID mice, IP (75 mg/kg), tumors resected two hours following dosing", "procedure": "as §3"}, "[12]": {"settings": "as little as 1μM small molecule"}, "[13]": {"settings": "mean over seven ESFT cell lines, read-out: Mean IC50 at 3 days (+/− SEM)"}, "[14]": {"settings": "seven EWS-FLI1 expressing cell lines, three days, read-out: range of mean IC50 values across ESFT cell lines"}},
  "note": "Read-outs that look alike come from different tables or passages of the source.",
  "data": [
    {"smiles": "COc1ccc(C(=O)CC2(O)C(=O)Nc3c(Cl)ccc(Cl)c32)cc1", "note": "(stereo not shown) [YK-4-279]", "values": [
      {"measurement": "inhibition of EWS-FLI1/RHA binding", "setting": "EWS-FLI1 and RHA; [12]", "result": "able to inhibit the protein-protein interaction"},
      {"measurement": "D1b/D1a mRNA ratio", "setting": "[1]", "result": "reduction in the D1b/D1a levels"},
      {"measurement": "IC50", "setting": "TC71 cells", "result": 1.83, "unit": "µM"},
      {"measurement": "IC50", "setting": "MMH-ES-1 cells", "result": 0.94, "unit": "µM"},
      {"measurement": "IC50", "setting": "MDA-MB-231 cells [2]", "result": 0.82, "unit": "µM"},
      {"measurement": "IC50", "setting": "PANC1 cells [3]", "result": 1.51, "unit": "µM"},
      {"measurement": "IC50", "setting": "ESFT cell lines; [13]", "result": 1.02, "unit": "µM"},
      {"measurement": "IC50", "setting": "ESFT cell lines; [14]", "result": "0.33 to 1.83", "unit": "µM"},
      {"measurement": "caspase-3 activation, average across the panel of six ESFT cell lines", "setting": "[4]", "result": 8.8, "unit": "fold"},
      {"measurement": "slope (m), rate of caspase activity increase", "setting": "[5]", "result": "4.43 ± 0.66"},
      {"measurement": "IC50", "setting": "MDA-MB-231 cells [6]", "result": "> 20", "unit": "µM"},
      {"measurement": "IC50", "setting": "PANC1 cells [7]", "result": "> 20", "unit": "µM"},
      {"measurement": "IC50", "setting": "[8]", "result": "> 30", "unit": "µM"},
      {"measurement": "toxicity", "setting": "[9]", "result": "no toxicity"}
    ]},
    {"smiles": "COc1ccc(C(=O)C[C@]2(O)C(=O)Nc3c(Cl)ccc(Cl)c32)cc1", "note": "[(R)-YK-4-279]", "values": [
      {"measurement": "inhibition of EWS-FLI1/RHA binding", "setting": "EWS-FLI1 and RHA; 30μM", "result": "does not inhibit the binding"},
      {"measurement": "D1b/D1a mRNA ratio", "setting": "[1]", "result": "maintained a D1b/D1a ratio equivalent to the vehicle treated cells"},
      {"measurement": "IC50", "setting": "TC71 cells", "result": 20.9, "unit": "µM"},
      {"measurement": "IC50", "setting": "MMH-ES-1 cells", "result": 26, "unit": "µM"},
      {"measurement": "IC50", "setting": "MDA-MB-231 cells [2]", "result": 22, "unit": "µM"},
      {"measurement": "IC50", "setting": "PANC1 cells [3]", "result": 24.9, "unit": "µM"},
      {"measurement": "IC50", "setting": "ESFT cell lines; [13]", "result": 18.5, "unit": "µM"},
      {"measurement": "IC50", "setting": "ESFT cell lines; [14]", "result": "11.7 to 26", "unit": "µM"},
      {"measurement": "bioavailability", "setting": "[10]", "result": "8 to 15", "unit": "%"}
    ]},
    {"smiles": "COc1ccc(C(=O)C[C@@]2(O)C(=O)Nc3c(Cl)ccc(Cl)c32)cc1", "note": "[(S)-YK-4-279]", "values": [
      {"measurement": "inhibition of EWS-FLI1/RHA binding", "setting": "EWS-FLI1 and RHA; [12]", "result": "able to inhibit the protein-protein interaction"},
      {"measurement": "D1b/D1a mRNA ratio", "setting": "[1]", "result": "reduced this ratio to a level equivalent to the EWS-FLI1 reduction"},
      {"measurement": "more potent at the D1b/D1a reduction than racemic", "setting": "[1]", "result": "approximately 35%"},
      {"measurement": "fold-difference in IC50 between the racemic and the active enantiomer", "setting": "TC71 cells; TC71 cells", "result": "more than a log-fold difference"},
      {"measurement": "IC50", "setting": "TC71 cells", "result": 0.16, "unit": "µM"},
      {"measurement": "IC50", "setting": "MMH-ES-1 cells", "result": 0.34, "unit": "µM"},
      {"measurement": "IC50", "setting": "MDA-MB-231 cells [2]", "result": 1.17, "unit": "µM"},
      {"measurement": "IC50", "setting": "PANC1 cells [3]", "result": 1.69, "unit": "µM"},
      {"measurement": "IC50", "setting": "ESFT cell lines; [13]", "result": 0.34, "unit": "µM"},
      {"measurement": "IC50", "setting": "ESFT cell lines; [14]", "result": "0.16 to 0.87", "unit": "µM"},
      {"measurement": "caspase-3 activation, average across the panel of six ESFT cell lines", "setting": "[4]", "result": 10.3, "unit": "fold"},
      {"measurement": "slope (m), rate of caspase activity increase", "setting": "[5]", "result": "7.23 ± 0.32"},
      {"measurement": "Percent of (S)-YK-4-279 present in tumor", "setting": "[11]", "result": 100, "unit": "%"},
      {"measurement": "bioavailability", "setting": "[10]", "result": "2 to 6", "unit": "%"}
    ]}
  ]
}
